Laboratory results published in patent publication US20150307841A1, “Composition for Promoting Differentiation and Proliferation of Neural Stem Cell and Neural Precursor Cell” (priority 2014, published 2015).

What was measured:
[1] = system: memory-deficient model rats; experiment: Passive avoidance test in memory-deficient model rats; format: in vivo, rat
From the text: Ibotenic acid is a neurotoxin present in mushrooms and is known to cause powerful damage to neurons when directly injected into the brain of mice or rats. In particular, because senile plaques and neuronal cell death appear in the entorhinal cortex and hippocampus in early Alzheimer's disease patients (Ueki A et al. J Neurol Sci, 1994), memory-deficient model rats were generated by injecting ibotenic acid (IBO) into the entorhinal cortex. The surgical protocol followed Heo H et al.'s method (J Ethnopharmacol, 2009) with some modifications. In the model animals, the injection of ibotenic acid induces cell death not only in the entorhinal cortex but also in the CA and DG regions of the hippocampus and impairs hippocampus-related learning and memory abilities.
The 6-week-old rats were anesthetized with equithesin (350 mM pentobarbital sodium, 250 mM chloral hydrate, 85 mM MgSO4 and 40% propylene glycol in 10% ethanol, 2 mL/kg). […]
The passive avoidance was carried out as described in Heo H et al. (J Ethnopharmacol, 2009), with the same number of animals per group as the Y-maze test. […] Exactly 24 hours after the acquisition trial, the rats were placed in the lighted chamber again and the latency time to enter the dark chamber was measured for 720 seconds (retention trial). […]

[2] = system: BrdU-positive neural precursor cells in the hippocampal region; experiment: Immunohistochemical analysis of BrdU in hippocampus after soyasaponin I administration (Experimental Example 1); format: in vivo, rat
Description: After conducting the three behavioral tests, the rats were sacrificed for immunohistochemical analysis.
The brain slices of the test animals of the normal group (Sham), the IBO group and the Soya-I group were immunostained by the method of Heo H et al. (J Ethnopharmacol, 2009) with modifications. The rats were transcardially perfused with 4% PFA in PBS. Following fixation by immersing in 4% PFA in PBS for 3 hours, the brain tissues were cryoprotected in 30% sucrose in PBS, frozen with an optimal cutting temperature (OCT) compound and stored at −80° C.
The brain tissue blocks were cryosectioned through the coronal plane at a thickness of 35 μm. The brain tissue sections were stored at 4° C. in a storing solution (30% glycerol and 30% ethylene glycol in PBS). The stored brain slices were permeabilized in 0.5% Triton X-I00 for 20 minutes and incubated at 37° C. for 30 minutes in 2 N HCl. Then, they were blocked in 15% normal serum and 3% bovine serum albumin (BSA, bio-WORLD, Dublin, Ohio, USA) and 0.1% Triton X-100 for 2 hours under a free-floating condition.
The sections were incubated for 16 hours at 4° C. with primary antibodies against bromodeoxyuridine (BrdU) (Sigma). […]
In the immunohistochemical analysis, the number of the cells immnunostained against each antibody was counted from 5 or 6 hippocampal coronal sections. […]

Q: `C[C@@H]1O[C@@H](O[C@H]2[C@H](O[C@H]3[C@H](O[C@H]4CC[C@@]5(C)[C@@H](CC[C@]6(C)[C@@H]5CC=C5[C@@H]7CC(C)(C)C[C@@H](O)[C@]7(C)CC[C@]56C)[C@@]4(C)CO)O[C@H](C(=O)O)[C@@H](O)[C@@H]3O)O[C@H](CO)[C@H](O)[C@@H]2O)[C@H](O)[C@H](O)[C@H]1O` [soyasaponin I] was tested. Which “Passive avoidance latency time, relative to that of the normal group” value ([1]; 10 mg/kg oral, tests 2 weeks after administration (Experimental Example 2)) did it give?
A: 89.65%

Q: What about the “Passive avoidance latency time” value ([1]; Experimental Example 1, retention trial 24 hours after shock) of the same molecule?
A: improvement in latency time

Q: And the “Dose with greatest rise in number of BrdU-positive cells” value ([2]; 10 mg/kg oral)?
A: largest increase

Q: And the “Number of BrdU-positive cells in the dentate gyrus of the hippocampus versus IBO” value ([2]; all doses (5, 10, 20 mg/kg) oral)?
A: increased significantly
